{
  "source": "patent US20090197880A1",
  "about": "(Genelabs Technologies, Inc., priority 2007, published 2009)",
  "data": [
    {"assay": "HCV replicon assay (luciferase) in ET (Huh-lucubineo-ET) cell line", "assay_type": "cell-based", "details": "Hepatitis C virus; tested at 10 μM; inhibition of replication relative to no compound control; ET replicon cells, luciferase 48-72 hours; read-out: % inhition at 10 μM", "units": {"inhibition at 10 µM": "%"}, "values": [
      {"compound": "FC(F)(F)c1ccc(-c2cc(Cn3cc4nc(N5CCc6ccccc6C5)nc-4cn3)on2)c(C(F)(F)F)c1", "note": "[Compound 257, 2-{5-[3-(2,4-Bis-trifluoromethyl-phenyl)-isoxazol-5-ylmethyl]-5H-imidazo[4,5-d]pyridazin-2-yl}-1,2,3,4-tetrahydro-isoquinoline]", "inhibition at 10 µM": 0.87},
      {"compound": "CC(Nc1nc2cnn(Cc3cc(-c4ccc(C(F)(F)F)cc4C(F)(F)F)no3)cc-2n1)c1ccccc1", "note": "(stereo not drawn) [Compound 258, {5-[3-(2,4-Bis-trifluoromethyl-phenyl)-isoxazol-5-ylmethyl]-5H-imidazo[4,5-d]pyridazin-2-yl}-(1-phenyl-ethyl)-amine]", "inhibition at 10 µM": 40},
      {"compound": "FC(F)(F)c1ccc(-c2cc(Cn3cc4nc(NC5CCc6ccccc65)nc-4cn3)on2)c(C(F)(F)F)c1", "note": "(stereo not drawn) [Compound 259]", "inhibition at 10 µM": 50.6},
      {"compound": "FC(F)(F)c1ccc(-c2cc(Cn3cc4nc(NC5CCCc6ccccc65)nc-4cn3)on2)c(C(F)(F)F)c1", "note": "(stereo not drawn) [Compound 260, {5-[3-(2,4-Bis-trifluoromethyl-phenyl)-isoxazol-5-ylmethyl]-5H-imidazo[4,5-d]pyridazin-2-yl}-(1,2,3,4-tetrahydro-naphthalen-1-yl)-amine]", "inhibition at 10 µM": 53.2},
      {"compound": "FC(F)(F)c1ccc(-c2cc(Cn3cc4nc(N5Cc6ccccc6C5)nc-4cn3)on2)c(C(F)(F)F)c1", "note": "[Compound 261, 5-[3-(2,4-Bis-trifluoromethyl-phenyl)-isoxazol-5-ylmethyl]-2-(1,3-dihydro-isoindol-2-yl)-5H-imidazo[4,5-d]pyridazine]", "inhibition at 10 µM": 73.9},
      {"compound": "Oc1nn(Cc2cc(-c3ccc(C(F)(F)F)cc3C(F)(F)F)no2)cc2nc(-c3cccc(F)c3F)nc1-2", "note": "[Compound 262, 6-[3-(2,4-Bis-trifluoromethyl-phenyl)-isoxazol-5-ylmethyl]-2-(2,3-difluoro-phenyl)-6H-imidazo[4,5-d]pyridazin-4-ol]", "inhibition at 10 µM": 96.6},
      {"compound": "COc1ccc(-c2cc(Cn3cc4nc(-c5cccc(F)c5F)nc-4cn3)on2)c(C(=O)O)c1", "note": "[Compound 266, 2-{5-[2-(2,3-Difluoro-phenyl)-imidazo[4,5-d]pyridazin-5-ylmethyl]-isoxazol-3-yl}-5-methoxy-benzoic Acid]", "inhibition at 10 µM": 10},
      {"compound": "COc1ccc(-c2ccc(-c3cc(Cn4cc5nc(-c6cccc(F)c6F)nc-5cn4)on3)cc2)cc1", "note": "[Compound 268, 2-(2,3-Difluoro-phenyl)-5-[3-(4′-methoxy-biphenyl-4-yl)-isoxazol-5-ylmethyl]-5H-imidazo[4,5-d]pyridazine]", "inhibition at 10 µM": 93.7},
      {"compound": "CCCOc1ccc(-c2ccc(-c3cc(Cn4cc5nc(-c6cccc(F)c6F)nc-5cn4)on3)cc2)cc1", "note": "[Compound 269, 2-(2,3-Difluoro-phenyl)-5-[3-(4′-propoxy-biphenyl-4-yl)-isoxazol-5-ylmethyl]-5H-imidazo[4,5-d]pyridazine]", "inhibition at 10 µM": 36.6},
      {"compound": "O=C(COc1ccc(-c2cc(Cn3cc4nc(-c5cccc(F)c5F)nc-4cn3)on2)cc1)NC1CC1", "note": "[Compound 271, N-Cyclopropyl-2-(4-{5-[2-(2,3-difluoro-phenyl)-imidazo[4,5-d]pyridazin-5-ylmethyl]-isoxazol-3-yl}-phenoxy)-acetamide]", "inhibition at 10 µM": 2.27},
      {"compound": "CC(=O)OCCCOc1ccc(-c2cc(Cn3cc4nc(-c5cccc(F)c5F)nc-4cn3)on2)cc1", "note": "[Compound 272, Acetic Acid 3-(4-{5-[2-(2,3-difluoro-phenyl)-imidazo[4,5-d]pyridazin-5-ylmethyl]-isoxazol-3-yl}-phenoxy)-propyl Ester]", "inhibition at 10 µM": 91.1},
      {"compound": "Fc1cccc(-c2nc3cnn(Cc4cc(-c5ccc(OCCCN6CCOCC6)cc5)no4)cc-3n2)c1F", "note": "[Compound 273, 2-(2,3-Difluoro-phenyl)-5-{3-[4-(3-morpholin-4-yl-propoxy)-phenyl]-isoxazol-5-ylmethyl}-5H-imidazo[4,5-d]pyridazine]", "inhibition at 10 µM": 94},
      {"compound": "O=C(O)CCCOc1ccc(-c2cc(Cn3cc4nc(-c5cccc(F)c5F)nc-4cn3)on2)cc1", "note": "[Compound 274, 4-(4-{5-[2-(2,3-Difluoro-phenyl)-imidazo[4,5-d]pyridazin-5-ylmethyl]-isoxazol-3-yl}-phenoxy)-butyric Acid]", "inhibition at 10 µM": 54.9},
      {"compound": "Fc1ccccc1-c1nc2cnn(Cc3cc(-c4cccc(C(F)(F)F)c4)no3)cc-2n1", "note": "[Compound 276, 2-(2-Fluoro-phenyl)-5-[3-(3-trifluoromethyl-phenyl)-isoxazol-5-ylmethyl]-5H-imidazo[4,5-d]pyridazine]", "inhibition at 10 µM": 60},
      {"compound": "CCCCc1ccc(-c2cc(Cn3cc4nc(-c5ccccc5F)nc-4cn3)on2)cc1", "note": "[Compound 277, 5-[3-(4-Butyl-phenyl)-isoxazol-5-ylmethyl]-2-(2-fluoro-phenyl)-5H-imidazo[4,5-d]pyridazine]", "inhibition at 10 µM": 99.9},
      {"compound": "Fc1ccccc1-c1nc2cnn(Cc3cc(-c4ccc(C(F)(F)F)cc4)no3)cc-2n1", "note": "[Compound 278, 2-(2-Fluoro-phenyl)-5-[3-(4-trifluoromethyl-phenyl)-isoxazol-5-ylmethyl]-5H-imidazo[4,5-d]pyridazine]", "inhibition at 10 µM": 99.7},
      {"compound": "Fc1cc(C(F)(F)F)ccc1-c1cc(Cn2cc3nc(-c4ccccc4F)nc-3cn2)on1", "note": "[Compound 279, 2-(2-Fluoro-phenyl)-5-[3-(2-fluoro-4-trifluoromethyl-phenyl)-isoxazol-5-ylmethyl]-5H-imidazo[4,5-d]pyridazine]", "inhibition at 10 µM": 98.9},
      {"compound": "Fc1ccccc1-c1nc2cnn(Cc3cc(-c4ccc(I)cc4)no3)cc-2n1", "note": "[Compound 282, 2-(2-Fluoro-phenyl)-5-[3-(4-iodo-phenyl)-isoxazol-5-ylmethyl]-5H-imidazo[4,5-d]pyridazine]", "inhibition at 10 µM": 83.4},
      {"compound": "CC(C)(C)c1ccc(-c2cc(Cn3cc4nc(-c5ccccc5F)nc-4cn3)on2)cc1", "note": "[Compound 283, 5-[3-(4-tert-Butyl-phenyl)-isoxazol-5-ylmethyl]-2-(2-fluoro-phenyl)-5H-imidazo[4,5-d]pyridazine]", "inhibition at 10 µM": 66.7},
      {"compound": "N#Cc1ccc(-c2cc(Cn3cc4nc(-c5ccccc5F)nc-4cn3)on2)cc1", "note": "[Compound 284, 4-{5-[2-(2-Fluoro-phenyl)-imidazo[4,5-d]pyridazin-5-ylmethyl]-isoxazol-3-yl}-benzonitrile]", "inhibition at 10 µM": 77.4},
      {"compound": "Fc1ccccc1-c1nc2cnn(Cc3cc(-c4ccc(Br)cc4)no3)cc-2n1", "note": "[Compound 285, 5-[3-(4-Bromo-phenyl)-isoxazol-5-ylmethyl]-2-(2-fluoro-phenyl)-5H-imidazo[4,5-d]pyridazine]", "inhibition at 10 µM": 90.1},
      {"compound": "Fc1ccccc1-c1nc2cnn(Cc3cc(-c4ccc(Br)cn4)no3)cc-2n1", "note": "[Compound 289, 5-[3-(5-Bromo-pyridin-2-yl)-isoxazol-5-ylmethyl]-2-(2-fluoro-phenyl)-5H-imidazo[4,5-d]pyridazine]", "inhibition at 10 µM": 57.3},
      {"compound": "CC(=O)c1ccc(-c2cc(Cn3cc4nc(-c5cccc(F)c5F)nc-4cn3)on2)cc1", "note": "[Compound 290, 1-(4-{5-[2-(2,3-Difluoro-phenyl)-imidazo[4,5-d]pyridazin-5-ylmethyl]-isoxazol-3-yl}-phenyl)-ethanone]", "inhibition at 10 µM": 95.2},
      {"compound": "Fc1ccccc1-c1nc2cnn(Cc3nnc(-c4ccc(Cl)cc4)o3)cc-2n1", "note": "[Compound 291, 5-[5-(4-Chloro-phenyl)-[1,3,4]oxadiazol-2-ylmethyl]-2-(2-fluoro-phenyl)-5H-imidazo[4,5-d]pyridazine]", "inhibition at 10 µM": 22.5},
      {"compound": "Fc1cccc(-c2nc3cnn(Cc4onc(-c5ccc(C(F)(F)F)cc5C(F)(F)F)c4Br)cc-3n2)c1F", "note": "[Compound 292, 5-[3-(2,4-Bis-trifluoromethyl-phenyl)-4-bromo-isoxazol-5-ylmethyl]-2-(2,3-difluoro-phenyl)-5H-imidazo[4,5-d]pyridazine]", "inhibition at 10 µM": 64.1},
      {"compound": "Fc1cccc(-c2nc3cnn(Cc4cc(-c5ccc(Br)cc5C(F)(F)F)no4)cc-3n2)c1F", "note": "[Compound 293, 5-[3-(4-Bromo-2-trifluoromethyl-phenyl)-isoxazol-5-ylmethyl]-2-(2,3-difluoro-phenyl)-5H-imidazo[4,5-d]pyridazine]", "inhibition at 10 µM": 99.7},
      {"compound": "COc1ccc(-c2cc(Cn3cc4nc(-c5cccc(F)c5F)nc-4cn3)on2)c(OC)c1", "note": "[Compound 294, 2-(2,3-Difluoro-phenyl)-5-[3-(2,4-dimethoxy-phenyl)-isoxazol-5-ylmethyl]-5H-imidazo[4,5-d]pyridazine]", "inhibition at 10 µM": 50},
      {"compound": "Fc1cccc(-c2nc3cnn(Cc4cc(-c5ccc(OCC(F)(F)F)cc5)no4)cc-3n2)c1F", "note": "[Compound 295, 2-(2,3-Difluoro-phenyl)-5-{3-[4-(2,2,2-trifluoro-ethoxy)-phenyl]-isoxazol-5-ylmethyl}-5H-imidazo[4,5-d]pyridazine]", "inhibition at 10 µM": 100},
      {"compound": "CCCOc1ccc(-c2cc(Cn3cc4nc(-c5cccc(F)c5F)nc-4cn3)on2)c(F)c1", "note": "[Compound 296, 2-(2,3-Difluoro-phenyl)-5-[3-(2-fluoro-4-propoxy-phenyl)-isoxazol-5-ylmethyl]-5H-imidazo[4,5-d]pyridazine]", "inhibition at 10 µM": 99.5},
      {"compound": "COc1cc(OC(F)(F)F)ccc1-c1cc(Cn2cc3nc(-c4cccc(F)c4F)nc-3cn2)on1", "note": "[Compound 297, 2-(2,3-Difluoro-phenyl)-5-[3-(2-methoxy-4-trifluoromethoxy-phenyl)-isoxazol-5-ylmethyl]-5H-imidazo[4,5-d]pyridazine]", "inhibition at 10 µM": 90.8},
      {"compound": "COc1ccc(-c2cc(Cn3cc4nc(-c5cccc(F)c5F)nc-4cn3)on2)c(OC(F)(F)F)c1", "note": "[Compound 298, 2-(2,3-Difluoro-phenyl)-5-[3-(4-methoxy-2-trifluoromethoxy-phenyl)-isoxazol-5-ylmethyl]-5H-imidazo[4,5-d]pyridazine]", "inhibition at 10 µM": 99.9},
      {"compound": "Fc1ccc(F)c(-c2nc3cnn(Cc4cc(-c5ccc(C(F)(F)F)cc5C(F)(F)F)no4)cc-3n2)c1", "note": "[Compound 299, 5-[3-(2,4-Bis-trifluoromethyl-phenyl)-isoxazol-5-ylmethyl]-2-(2,5-difluoro-phenyl)-5H-imidazo[4,5-d]pyridazine]", "inhibition at 10 µM": 79.3},
      {"compound": "CCCCc1ccc(-c2cc(Cn3cc4nc(-c5cccc(F)c5F)nc-4cn3)on2)cn1", "note": "[Compound 301, 5-[3-(6-Butyl-pyridin-3-yl)-isoxazol-5-ylmethyl]-2-(2,3-difluoro-phenyl)-5H-imidazo[4,5-d]pyridazine]", "inhibition at 10 µM": 97.3}
    ]}
  ]
}
